Assay [1] has as its target T1, Heat shock factor protein 1 (Mus musculus, UniProt P38532).
T1 sequence (P38532 whole entry): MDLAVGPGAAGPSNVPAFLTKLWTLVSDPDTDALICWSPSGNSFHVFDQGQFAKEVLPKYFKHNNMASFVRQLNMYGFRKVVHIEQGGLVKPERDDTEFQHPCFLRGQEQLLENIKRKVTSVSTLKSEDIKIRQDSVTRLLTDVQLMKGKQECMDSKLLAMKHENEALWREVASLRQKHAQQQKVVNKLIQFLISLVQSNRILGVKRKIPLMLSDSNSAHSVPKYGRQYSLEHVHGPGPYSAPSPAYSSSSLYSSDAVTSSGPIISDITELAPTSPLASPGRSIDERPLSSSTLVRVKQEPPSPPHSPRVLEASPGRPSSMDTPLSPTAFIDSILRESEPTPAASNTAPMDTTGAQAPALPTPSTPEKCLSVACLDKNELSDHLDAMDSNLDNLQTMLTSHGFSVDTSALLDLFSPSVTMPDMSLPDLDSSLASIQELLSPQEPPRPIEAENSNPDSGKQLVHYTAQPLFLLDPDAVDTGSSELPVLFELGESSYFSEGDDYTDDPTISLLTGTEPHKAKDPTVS
Nature of the assay: enhancement of HSF1-driven luciferase signal – cell-based, NIH3T3, luminescence, dose retest, confirmation (AID 435004).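 Note: stress induced by proteasome inhibitor MG132 added 30 min after compound; luciferase reporter driven by HSF1 response element in NIH3T3 cells; actives raise luminescence as potentiators of the MG132 stress response.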 Type of assay: functional.

The target of assay [2] is T2, High affinity choline transporter 1 (Homo sapiens, UniProt Q9GZV3).
T2 sequence (Q9GZV3 whole entry): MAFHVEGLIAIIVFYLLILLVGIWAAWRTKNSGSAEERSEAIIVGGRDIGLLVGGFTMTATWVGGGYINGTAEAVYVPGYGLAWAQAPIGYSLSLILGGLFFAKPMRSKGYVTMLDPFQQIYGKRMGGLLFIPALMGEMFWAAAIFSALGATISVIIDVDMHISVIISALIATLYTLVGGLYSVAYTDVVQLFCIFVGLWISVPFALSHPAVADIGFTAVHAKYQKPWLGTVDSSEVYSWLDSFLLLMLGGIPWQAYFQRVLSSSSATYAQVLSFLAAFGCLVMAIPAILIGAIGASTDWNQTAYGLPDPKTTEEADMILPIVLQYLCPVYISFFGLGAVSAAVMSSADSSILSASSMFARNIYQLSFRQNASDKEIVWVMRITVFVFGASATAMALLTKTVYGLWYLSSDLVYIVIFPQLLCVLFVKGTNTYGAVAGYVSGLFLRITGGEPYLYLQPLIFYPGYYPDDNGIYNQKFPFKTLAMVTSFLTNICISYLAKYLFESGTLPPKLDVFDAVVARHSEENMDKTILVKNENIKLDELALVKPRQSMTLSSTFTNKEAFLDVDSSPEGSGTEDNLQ
As to the kind of experiment: human choline transporter blockers, potency – cell-based, 5-point CRC, membrane potential dye, dose response (AID 504840). The class given is functional.

Another assay concerns H4. Nature of the assay: Luminescence Cell-Based Dose Response HTS to Identify Activators of 5'UTR Stem-Loop Driven Prion Protein mRNA Translation in H4 Neuroglioblastoma Cells. [Related pubchem assays: 1829 (Project Summary), 1814 (Primary HTS)]. The note with it: Homo sapiens. The class given is functional.
Assay [3] can be described thus: Luminescence Cell-Based Dose Confirmation HTS to Identify Activators of 5'UTR Stem-Loop Driven Alpha-Synuclein mRNA Translation in H4 Neuroglioblastoma Cells. [Related pubchem assays: 1829 (Project Summary), 1814 (Primary HTS)]. Type of assay: functional.
Assay [4] is described as follows: Luminescence Cell-Based Dose Response HTS to Identify Activators of Luciferase Translation or Activity in H4 […] Cells. [Related pubchem assays: 1829 (Project Summary), 1814 (Primary HTS)]. The class given is functional.
The target of another assay is T3, Streptokinase A (Streptococcus pyogenes serotype M1, UniProt P10520).
T3 sequence (P10520 whole entry): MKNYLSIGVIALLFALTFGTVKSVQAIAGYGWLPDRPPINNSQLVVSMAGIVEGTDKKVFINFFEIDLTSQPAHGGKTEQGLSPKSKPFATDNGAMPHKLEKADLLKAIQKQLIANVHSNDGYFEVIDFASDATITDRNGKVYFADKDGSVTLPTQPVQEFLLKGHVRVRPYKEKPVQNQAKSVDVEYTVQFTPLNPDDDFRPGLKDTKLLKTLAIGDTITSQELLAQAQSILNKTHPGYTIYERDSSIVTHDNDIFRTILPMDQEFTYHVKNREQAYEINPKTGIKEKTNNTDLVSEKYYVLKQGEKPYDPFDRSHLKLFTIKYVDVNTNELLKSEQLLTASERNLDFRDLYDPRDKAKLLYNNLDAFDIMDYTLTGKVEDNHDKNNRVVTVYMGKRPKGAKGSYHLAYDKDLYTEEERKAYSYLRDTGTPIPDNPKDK
As to the kind of experiment: viability-normalized secreted streptokinase activity reduction – plasminogen activation absorbance, OD405, dose response (AID 1914).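 Note: secreted streptokinase activity via plasminogen activation per viability signal from cell pellet.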 The class given is functional, Streptococcus pyogenes M1 GAS.

A further assay deals with Streptococcus. As to the kind of experiment: GAS UMAA2166 growth inhibition – luminescence, BacTiterGlo, counter-screen for streptokinase expression inhibitor project, dose response (AID 1915).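 Note: potency for reduction of bacterial viability or growth.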 Type of assay: functional, organism-based.
The target in assay [5] is T4, Replicative DNA helicase DnaB (Mycobacterium tuberculosis, UniProt P9WMR3).
T4 sequence (P9WMR3 whole entry): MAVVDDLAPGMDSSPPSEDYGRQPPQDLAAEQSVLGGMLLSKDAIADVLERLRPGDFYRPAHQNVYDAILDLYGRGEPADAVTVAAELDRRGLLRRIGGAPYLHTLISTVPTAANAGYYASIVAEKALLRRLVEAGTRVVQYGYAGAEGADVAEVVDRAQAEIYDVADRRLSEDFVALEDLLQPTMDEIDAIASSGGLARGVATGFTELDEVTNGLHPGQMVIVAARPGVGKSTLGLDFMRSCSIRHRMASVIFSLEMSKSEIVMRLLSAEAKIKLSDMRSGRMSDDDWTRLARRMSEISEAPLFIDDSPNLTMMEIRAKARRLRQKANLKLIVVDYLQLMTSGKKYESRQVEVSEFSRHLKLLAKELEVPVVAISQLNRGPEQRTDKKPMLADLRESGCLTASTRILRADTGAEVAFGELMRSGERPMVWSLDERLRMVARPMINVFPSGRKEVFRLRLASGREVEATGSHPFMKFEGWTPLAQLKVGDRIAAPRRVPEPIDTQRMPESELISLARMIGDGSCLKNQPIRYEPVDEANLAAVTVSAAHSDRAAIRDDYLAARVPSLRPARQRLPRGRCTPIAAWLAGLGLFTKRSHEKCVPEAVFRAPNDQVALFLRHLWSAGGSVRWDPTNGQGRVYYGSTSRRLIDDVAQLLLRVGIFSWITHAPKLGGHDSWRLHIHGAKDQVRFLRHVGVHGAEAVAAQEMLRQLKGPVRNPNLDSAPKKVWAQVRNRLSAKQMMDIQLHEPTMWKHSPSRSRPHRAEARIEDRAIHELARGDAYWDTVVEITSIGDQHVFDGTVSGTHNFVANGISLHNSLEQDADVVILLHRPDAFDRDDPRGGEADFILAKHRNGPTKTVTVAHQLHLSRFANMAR
Nature of the assay: DnaB intein splicing inhibitors, dose response, biochemical, cell-free fluorescence (AID 449749). Type of assay: functional.

In another assay the target is T5, Protein RecA (Mycobacterium tuberculosis, UniProt P9WHJ3).
T5 sequence (P9WHJ3 whole entry): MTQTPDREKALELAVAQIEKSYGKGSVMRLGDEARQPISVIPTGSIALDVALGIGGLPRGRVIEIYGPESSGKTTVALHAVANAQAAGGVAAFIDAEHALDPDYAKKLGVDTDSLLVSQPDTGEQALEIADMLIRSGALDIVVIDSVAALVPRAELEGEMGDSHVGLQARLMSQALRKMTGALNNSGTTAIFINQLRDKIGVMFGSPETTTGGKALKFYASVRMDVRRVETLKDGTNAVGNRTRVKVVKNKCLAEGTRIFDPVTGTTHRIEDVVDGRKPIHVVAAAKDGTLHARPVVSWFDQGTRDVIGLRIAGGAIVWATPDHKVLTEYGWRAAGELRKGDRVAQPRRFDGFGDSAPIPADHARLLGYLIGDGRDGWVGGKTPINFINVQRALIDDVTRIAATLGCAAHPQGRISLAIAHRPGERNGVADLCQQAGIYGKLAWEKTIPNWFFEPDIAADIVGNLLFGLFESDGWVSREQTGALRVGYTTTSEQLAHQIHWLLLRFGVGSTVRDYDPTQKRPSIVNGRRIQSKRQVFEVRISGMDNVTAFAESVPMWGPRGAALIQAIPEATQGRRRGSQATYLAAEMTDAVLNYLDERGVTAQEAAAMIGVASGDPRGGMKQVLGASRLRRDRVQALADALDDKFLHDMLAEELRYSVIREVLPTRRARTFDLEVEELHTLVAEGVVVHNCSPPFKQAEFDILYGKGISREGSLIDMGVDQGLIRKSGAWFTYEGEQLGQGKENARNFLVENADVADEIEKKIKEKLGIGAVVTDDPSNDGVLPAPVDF
Nature of the assay: Fluorescence Cell-Free Homogeneous Dose Retest to Identify Inhibitors of RecA-Intein Splicing Activity. [Related pubchem assays (depositor defined):AID2097, AID2223, AID489010, AID492950]. Type of assay: functional.

The test system of assay [6] is Streptococcus sp. 'group A'. Nature of the assay: Streptococcus pyogenes SK(-)GAS viability under kanamycin – luminescence, BacTiterGlo, confirmation, counter-screen for streptokinase expression inhibitor project, dose response (AID 1900). The class given is functional, organism-based.

Usually EC50 stands for the midpoint of the concentration-response curve. What is called IC50 is the midpoint of a concentration-inhibition curve. As a reminder, the AC50 is the concentration giving half of the maximal activity seen.

Active and inactive are the calls of the source. Cut-off read from the data, not from the text of the source, for most assays here: actives have a measured EC50 and inactives only a lower limit.

For the molecule `CCC(C)(C)n1nnnc1C(c1cc2cc(C)cc(C)c2nc1O)N1CCN(Cc2ccc3c(c2)OCO3)CC1` (centres undefined), the EC50 in assay [1] is > 260 µM (inactive).

With `Cc1cccc(C(=O)Nc2cccc(OCC(=O)O)c2)c1`, the IC50 in [2] is 7.59 µM (active).

Regarding `CC(CC#CCN1CCOCC1)OCCC#N` (centres undefined), in assay [1], the EC50 is > 260 µM (inactive).

For the molecule `CCCOc1ccc(-c2c(=O)n(O)c3ccccc3[n+]2[O-])cc1`, the EC50 in the assay on H4 is 97.6 µM (active); in assay [3], 10.1 µM (active); in assay [4], 11.6 µM (active).

In the case of `CSc1ccc(/C=N\Nc2nncn2N)cc1`, the EC50 in assay [1] was 141 µM (active).

As for `COc1ccc2oc(=O)c(-c3nnc(NCc4ccco4)s3)cc2c1`, the values for the EC50 (with H4; in [3]; in assay [4]) were 1.91 µM (active), 23.1 µM (active) and 78.7 µM (active), respectively.

`O=C1C=C(c2ccccc2)CC(/C=C/c2ccccc2)C1` (centres undefined): the EC50 in [1] was > 260 µM (inactive).

Turning to `Cc1cc(C)c(Cn2c3ccccc3c3cnn(CC(=O)NCCN4CCOCC4)c(=O)c32)c(C)c1`, the IC50 in assay [2] is 15.8 µM (active).

In the case of `CC(C)Cn1c(=O)c2c(nc3n2CCCN3CCc2ccccc2)n(C)c1=O`, the IC50 in assay [2] was 13.2 µM (active).

As to `O=S(=O)(Nc1ccc(-c2nnc3n2CCCCC3)cc1)c1ccc2nc(O)oc2c1`, the EC50 in [1] was > 260 µM (inactive).

For `CC(C)(C)C(=O)Nc1scc(-c2ccc(-c3ccccc3)cc2)c1C(=O)O`, in assay [2], the IC50 was 14.5 µM (active).

Consider `CN1C(=O)S/C(=C\c2ccc(-n3cncn3)cc2)C1=O`, for which the EC50 with H4 was > 120 µM (not active); in [3], 59.6 µM (active); in [4], 32.4 µM (active).

Consider `Cc1n[nH]c(O)c1/C=N/Cc1cccs1`, for which the EC50 in assay [1] is > 260 µM (inactive).

Turning to `COc1ccccc1C(=O)Nc1nnc(C)s1`, the EC50 is 26.3 µM (active) in the assay with H4, 0.108 µM (active) in [3] and 4.92 µM (active) in assay [4].

Turning to `C[C@@H]1OC(Nc2ccc(N=Nc3ccccc3)cc2)[C@H](O)[C@H](O)[C@H]1O` (some centres undefined), the values for the EC50 (in the assay on H4; in assay [3]; in assay [4]) were 11.1 µM (active), 16.9 µM (active) and 54.8 µM (active), respectively.

Regarding `O=C(Cc1c(O)c2ccccc2[nH]c1=O)NCc1ccccc1`, in assay [1], the EC50 is > 260 µM (inactive).

In the case of `Cc1cccc2cc3c(nc12)S/C(=N/CC1CCCO1)N(Cc1ccco1)C3` (centres undefined), the EC50 in assay [1] was 44.6 µM (active).

Regarding `COC(=O)c1nnn(CC(=O)NC(=O)Nc2ccc(F)cc2)c1C(=O)OC`, in assay [1], the EC50 was > 260 µM (inactive).

For `CCCCCC(=O)Cc1cc(O)cc2c1C(=O)Oc1cc(O)c(C(=O)O)c(CCCCC)c1O2` [PHYSODIC ACID], the EC50 is 15.9 µM (active) at Streptokinase A, > 150 µM (not active) in the assay on Streptococcus, 3.23 µM (active) at Protein RecA and 2.36 µM (active) in [6]. Moreover, the AC50 in assay [5] is 2.05 µM (active).

For `Cc1ccccc1Nc1c(-c2ccc(N3CCOCC3)cc2)nc2cnccn12`, the figures for the EC50 (with H4; in assay [3]; in [4]) were 16.6 µM (active), 15 µM (active) and 19.2 µM (active), respectively.

Take `CCOc1ccc(NC(c2ccccn2)c2oc(CO)cc(=O)c2O)cc1` (centres undefined): the values for the EC50 (in the assay on H4; in assay [4]) were 22.2 µM (active) and 0.175 µM (active), respectively.

For `Cc1cccc(N2CCN(C(=O)c3ccc(CNc4c(N5CCC(C)CC5)c(=O)c4=O)cc3)CC2C)c1` (centres undefined), the IC50 in assay [2] is 14.5 µM (active).

Regarding `CCN1CCCC1CNC(=O)c1ccc2c(c1)N(Cc1ccccc1F)C(=O)c1ccccc1S2(=O)=O` (centres undefined), in assay [2], the half-maximal inhibitory concentration (IC50) is 11.2 µM (active).

As for `Cc1cc(-c2nnc(-c3cccc(Cl)c3)o2)no1`, the EC50 in the assay on H4 was 119 µM (active); in assay [3], 0.132 µM (active); in assay [4], 0.318 µM (active).

On to `COc1ccc(NC(=O)COc2cccc3c2CCN(Cc2cccnc2)C3=O)c(OC)c1`, for which, in assay [1], the EC50 is > 260 µM (inactive).

(Values after ChEMBL document CHEMBL1201862, “PubChem BioAssay data set” (2004).)
